Source: publication PMC4883822, “High-Efficiency Capture of Drug Resistant-Influenza Virus by Live Imaging of Sialidase Activity” (PLoS ONE, 2016)

Target: T1, sialidase (neuraminidase, NA) of oseltamivir-sensitive 838 (Influenza A virus (A/Lima/070674913/2013(H1N1)), UniProt W8DXJ8)
T1 construct: full-length viral NA on whole virus grown in MDCK cells (or on infected MDCK cells); natural 275H
Assay: live-focus fluorescence imaging of sialidase activity, qualitative
Format: cell-based
Details: substrate BTP3-Neu5Ac, 37 °C, 1 h, infected MDCK cells

SMILES: CCC(CC)[C@H](NC(C)=O)[C@@H]1[C@H](O)[C@@H](C(=O)O)C[C@H]1N=C(N)N [peramivir]
- inhibition at 10-1000 nM (qualitative): adding BTP3-Neu5Ac with clinical use-approved NAIs (oseltamivir, zanamivir, peramivir, and laninamivir)
